Counter-ions that a name gives are not always drawn. Like-named read-outs stand apart in the source and are kept apart here.
Tests used:
[1] = tested on: MiaPaCa-2 (pancreatic carcinoma); assay: In vitro antiproliferation assay, MiaPaCa-2 cells; type: cell-based; settings: Homo sapiens, MIA PaCa-2; Miapaca2; read-out: In Vitro IC50
Description: (§1) Cis racemic Compound 15, (1S,2R) enantiomeric Compound 15a and […] enantiomeric Compound 15b were also tested against DU145 (prostate carcinoma), HCT116 (colorectal carcinoma) and MiaPaCa-2 (pancreatic carcinoma) cell lines.
(§2) Certain compounds were tested against other cell types for their ability to inhibit proliferation in standard antiproliferation assays.

[2] = tested on: DU145 (prostate carcinoma); assay: In vitro antiproliferation assay, DU145 cells; type: cell-based; settings: Homo sapiens, DU-145; DU145; read-out: In Vitro IC50
Description: as §1, §2

[3] = tested on: MiaPaCa tumors; assay: Xenograft regression model, MiaPaCa tumors; type: in vivo, SCID mice; settings: 10 mg/kg/day oral or i.p., similar to taxol
Description: (§3) When palpable tumors appeared and were of a preselected volume (approx. 100 mm3 for treatment model; >300 mm3 for regression model), the mice were administered test compounds in the amounts and according to the dosing regimens specified in TABLE 3 (treatment protocol) and TABLE 4 (regression protocol), below.

[4] = tested on: HELA (cervical adenocarcinoma); assay: In vitro antiproliferation assay, HELA cells; type: cell-based; settings: Homo sapiens, HeLa
Description: as §2

[5] = tested on: H7299; assay: In vitro antiproliferation assay, H7299 cells; type: cell-based
Description: as §2

[6] = tested on: A549 tumors; assay: Xenograft treatment model, A549 tumors; type: in vivo, SCID mice; settings: 5 days on/2 days off, 10 mg/kg qd, p>0.05
Description: as §3

[7] = tested on: Colo205 tumors; assay: Xenograft regression model, Colo205 tumors; type: in vivo, SCID mice; settings: 10 mg/kg/day oral
Description: as §3

[8] = tested on: Colo205 tumors; assay: Xenograft treatment model, Colo205 tumors; type: in vivo, SCID mice; settings: daily and pulsed dosing regimens, all dosage levels tested
Description: as §3

[9] = tested on: H460 (large cell lung carcinoma); assay: In vitro antiproliferation assay, H460 cells; type: cell-based; settings: Homo sapiens, NCI-H460
Description: as §2

[10] = tested on: H1299 (non-small cell lung carcinoma); assay: In vitro antiproliferation assay, H1299 cells (TABLE 1 6 point assay; TABLE 2); type: cell-based; settings: Homo sapiens
Description: as §2

[11] = tested on: A549 (lung carcinoma); assay: In vitro antiproliferation assay, A549 cells (TABLE 1 6 point assay; TABLE 2); type: cell-based; settings: Homo sapiens
Description: as §2

[12] = tested on: COLO 205 (colorectal adenocarcinoma); assay: In vitro antiproliferation assay, COLO 205 cells; type: cell-based; settings: Homo sapiens, COLO 205; Colo205
Description: as §2

[13] = tested on: SW620 (colorectal adenocarcinoma); assay: In vitro antiproliferation assay, SW620 cells; type: cell-based; settings: Homo sapiens, SW-620
Description: as §2

[14] = tested on: U937 (histiocytic lymphoma); assay: In vitro antiproliferation assay, U937 cells; type: cell-based; settings: Homo sapiens, U-937
Description: as §2

[15] = tested on: TOV-21G (ovarian clear cell carcinoma); assay: In vitro antiproliferation assay, TOV-21G cells; type: cell-based; settings: Homo sapiens, TOV21G; TOV-G21
Description: as §2

[16] = tested on: K562 (bone marrow chronic myelogenous leukemia); assay: In vitro antiproliferation assay, K562 cells; type: cell-based; settings: Homo sapiens
Description: as §2

[17] = tested on: MOLT4 (T lymphoblast acute lymphoblastic leukemia); assay: In vitro antiproliferation assay, MOLT4 cells; type: cell-based; settings: Homo sapiens, MOLT-4
Description: as §2

[18] = target: T1, Aurora kinase-B (Homo sapiens, UniProt Q96GD4); assay: Functional cellular assay of Aurora kinase-B: phosphorylation of histone H3 in A549 cells; type: cell-based; settings: A549 cells, phospho-histone H3; read-out: IC50 of Aurora kinase-B inhibition
T1 construct: endogenous in cells; host or cells: A549 cells
Description: Enantiomers E1 and E2 (Compounds 60a and 60b, respectively) were tested for their ability to inhibit Aurora kinase-B in a functional cellular assay involving phosphorylation of its substrate, histone H3. For the assay, A549 cells were seeded into the wells of a microtiter tray (5000 cells/well in 100 μl F12K media) late in the afternoon on Day 1. The cells were grown overnight (37° C., 5% CO2) On Day 2, 50 μl nocodazole (1 μM in media) was added to each well, giving a final concentration of 333 nM. Cells were grown for an additional 18 hrs under the same conditions.
On Day 3, 50 μl aliguots of varying concentrations of test compound were added to the wells Test compounds were prepared by 2-fold serial dilution of a […] stock (in DMSO). The diluted compounds in DMSO were then further diluted 1:50 with media to yield a final solution containing 4× test compound, 98% media, 2% DMSO. After incubation, the media/test compound was washed and the cells fixed with 2% paraformaldehyde (in Dulbecco's phosphate buffered saline “DPBS”; 25 μl per well; […] incubation). […] The cells were then stained with a secondary antibody labeled with a fluorescent dye (secondary antibody donkey anti-mouse AlexFluor 488 (Invitrogen Molecular Probes; 1:2000) and DAPI (1:15,000 of 1 mg/ml stock) for 1 hr at room temperature, washed three times with DPBS (200 μl/well) and stored under DPBS (100 μl/well) at 4° C. until ready for analysis.
A Zeiss Axiovert S100 inverted fluorescent microscope with a Plan-NEOFLUAR 10× objective, a Hamamatsu Lightningcure 200 Mercury-Xenon light source and an Omega Optical XF57 quad filter was used for all data collection. […] Images were captured and analyzed in 12-bit format using segmentation and morphological routines contained in the Image Pro software package. Identified nuclei were counted and pixel data for each cell along with experimental conditions was stored in a database using MySQL 4.0.14. […]
For phospho-histone H3 analysis the data is converted to Facs files and analysed using FlowJo. […]

[19] = tested on: U2OS (bone osteosarcoma); assay: In vitro antiproliferation assay, U2OS cells; type: cell-based; settings: Homo sapiens, U2OS; U20S
Description: as §2

[20] = tested on: MOLT3 (T lymphoblast acute lymphoblastic leukemia); assay: In vitro antiproliferation assay, MOLT3 cells; type: cell-based; settings: Homo sapiens, MOLT-3
Description: as §2

[21] = tested on: SK-OV-3 (ovarian adenocarcinoma); assay: In vitro antiproliferation assay, SK-OV-3 cells; type: cell-based; settings: Homo sapiens, SKOV3
Description: as §2

[22] = tested on: H1155 (non-small cell lung carcinoma); assay: In vitro antiproliferation assay, H1155 cells; type: cell-based; settings: Homo sapiens, NCI-H1155
Description: as §2

[23] = tested on: HL160 (promyeloblast promyelocytic leukemia); assay: In vitro antiproliferation assay, HL160 cells; type: cell-based
Description: as §2

[24] = tested on: L1210 (mouse lymphocytic leukemia); assay: In vitro antiproliferation assay, L1210 cells; type: cell-based; settings: Mus musculus
Description: as §2

[25] = tested on: ASPC-1 (pancreatic adenocarcinoma); assay: In vitro antiproliferation assay, ASPC-1 cells; type: cell-based; settings: Homo sapiens, ASPC1
Description: as §2

[26] = tested on: THP-1 (monocyte acute monocytic leukemia); assay: In vitro antiproliferation assay, THP-1 cells; type: cell-based; settings: Homo sapiens
Description: as §2

[27] = tested on: BXPC-3 (pabcreatic adenocarcinoma); assay: In vitro antiproliferation assay, BXPC-3 cells; type: cell-based; settings: Homo sapiens
Description: as §2

[28] = tested on: PC3 (prostate adenocarcinoma); assay: In vitro antiproliferation assay, PC3 cells; type: cell-based; settings: Homo sapiens, PC-3
Description: as §2

[29] = tested on: CaOV-3 (ovarian adenocarcinoma); assay: In vitro antiproliferation assay, CaOV-3 cells; type: cell-based; settings: Homo sapiens
Description: as §2

[30] = tested on: SU86.86 (pancreatic carcinoma); assay: In vitro antiproliferation assay, SU86.86 cells; type: cell-based; settings: Homo sapiens, SU.86.86
Description: as §2

[31] = NCI-H1299, 6 point assay, H1299 cells, read-out: IC50, H1299 cells
[32] = NCI-H1299, H1299, read-out: In Vitro IC50
[33] = A549, 6 point assay, A549 cells, read-out: IC50, A549 cells
[34] = A549, A549, read-out: In Vitro IC50

T1 sequence (Q96GD4 whole entry): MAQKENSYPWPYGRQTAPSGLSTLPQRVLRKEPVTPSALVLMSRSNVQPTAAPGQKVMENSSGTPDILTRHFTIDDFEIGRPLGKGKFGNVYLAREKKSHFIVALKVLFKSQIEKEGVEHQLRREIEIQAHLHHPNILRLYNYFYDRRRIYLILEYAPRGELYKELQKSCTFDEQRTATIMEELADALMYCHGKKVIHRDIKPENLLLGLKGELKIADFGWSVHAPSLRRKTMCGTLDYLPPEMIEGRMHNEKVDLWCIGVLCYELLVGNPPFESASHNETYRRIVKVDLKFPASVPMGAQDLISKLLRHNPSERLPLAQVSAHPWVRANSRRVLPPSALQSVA

Compound: Cc1cc(Nc2ncc(F)c(N[C@H]3[C@@H](C(N)=O)[C@@H]4C=C[C@H]3C4)n2)ccc1N1CCN(C)CC1 [compound 234, (1R,2R,3S,4S)—N4-(3-Aminocarbonylbicyclo[2.2.1]hept-5-en-2-yl)-5-fluoro-N2-[3-methyl-4-(4-methylpiperazin-1-yl)phenyl]-2,4-pyrimidinediamine Hydrogen Chloride Salt]
- IC50 [1]: ≤ 10 nM
- IC50 [2]: ≤ 1000 nM
- Reduction in tumor growth rate [3]: Significant reductions in tumor growth rate
- IC50 [4]: ≤ 10 nM
- IC50 [5]: ≤ 1000 nM
- Reduction in mean tumor volume [6]: ~40%
- Reduction in tumor growth rate [7]: Significant reductions in tumor growth rate
- Reduction in tumor growth rate as compared to a vehicle control [8]: significant (p<0.050) reductions in tumor growth rate
- IC50 [9]: ≤ 10 nM
- IC50 [10, 31]: 100 to 1000 nM
- IC50 [10, 32]: ≤ 1000 nM
- IC50 [11, 33]: ≤ 100 nM
- IC50 [11, 34]: ≤ 10 nM
- IC50 [12]: ≤ 10 nM

Compound: Cc1cc(Nc2ncc(F)c(N[C@H]3[C@@H](C(N)=O)[C@@H]4C=C[C@H]3C4)n2)ccc1N1CCN(C)CC1 (single isomer, unassigned) [Compound 60a]
- IC50 [13]: ≤ 20 nM
- IC50 [1]: ≤ 10 nM
- IC50 [2]: ≤ 20 nM
- IC50 [14]: ≤ 10 nM
- IC50 [15]: ≤ 10 nM
- IC50 [16]: ≤ 1000 nM
- IC50 [17]: ≤ 10 nM
- IC50 [18]: ~7 nM
- IC50 [4]: ≤ 10 nM
- IC50 [5]: ≤ 20 nM
- IC50 [19]: ≤ 10 nM
- IC50 [20]: ≤ 10 nM
- IC50 [21]: ≤ 20 nM
- IC50 [10, 31]: ≤ 100 nM
- IC50 [10, 32]: ≤ 10 nM
- IC50 [22]: ≤ 10 nM
- IC50 [11, 33]: ≤ 100 nM
- IC50 [11, 34]: ≤ 10 nM
- IC50 [23]: ≤ 10 nM
- IC50 [24]: ≤ 20 nM
- IC50 [25]: ≤ 10 nM
- IC50 [26]: ≤ 1000 nM
- IC50 [27]: ≤ 10 nM
- IC50 [28]: ≤ 10 nM
- IC50 [29]: ≤ 10 nM
- IC50 [12]: ≤ 10 nM
- IC50 [30]: ≤ 20 nM
